Laboratory results: patent publication US20100041103A1, “COMPOSITION AND METHOD FOR ENHANCING CELL GROWTH AND CELL FUSION” (DO-COOP TECHNOLOGIES LTD., priority 2007, published 2010)
Structures can show the parent of a compound that is named as a salt. Ends that are not written are not given here.

How the values were obtained:
[1] = Dissolving retinol in Neowater, absorbance and filtration (Example 12); type: physicochemical
Procedure: Retinol (vitamin A) was purchased from Sigma (Fluka, 99% HPLC). Retinol was solubilized in Neowater™ under the following conditions.
1% retinol (0.01 gr in 1 ml) in EtOH and Neowater™
0.5% retinol (0.005 gr in 1 ml) in EtOH and Neowater™
0.5% retinol (0.125 gr in 25 ml) in EtOH and Neowater™.
0.25% retinol (0.0625 gr in 25 ml) in EtOH and Neowater™. Final EtOH concentration: 1.5%
Absorbance spectrum of retinol in EtOM: Retinol solutions were made in absolute EtOH, with different retinol concentrations, in order to create a calibration graph; absorbance spectrum was detected in a spectrophotometer.
2 solutions with 0.25% and 0.5% retinol in Neowater with unknown concentration of EtOH were detected in a spectrophotometer. Actual concentration of retinol is also unknown since some oil drops are not dissolved in the water.
Filtration: 2 solutions of 0.25% retinol in Neowater™ were prepared, with a final EtOH concentration of 1.5%.The solutions were filtrated in […] filter.

293T cells = test: Cell viability assay, trypan blue count after taxol; type: cell-based; settings: taxol dissolved in Neowater, 1.666 μM, 24 hour treatment
Procedure: Cell viability assay: 150,000 293T cells were seeded in a 6 well plate with 3 ml of DMEM medium. Each treatment was grown in DMEM medium based on RO or Neowater™. […] The cells were harvested following a 24 hour treatment with taxol and counted using trypan blue solution to detect dead cells.

[2] = Taxol in Neowater by slow solvent exchange, spectrophotometry and HPLC after storage (Example 18); type: physicochemical; settings: taxol dispersed in Neowater, 6 month storage at −20° C., HPLC
Procedure: Solubilization: 0.5 mM Taxol solution was prepared (0.0017 gr in 4 ml). Taxol was dissolved in ethanol and exchanged to Neowater™ using an RT slow solvent exchange procedure which extended for 20 days. […] The solution was sterilized using a 0.2 μm filter. Taxol was separately prepared in DMSO (0.5 mM). Both solutions were kept at −20° C. Absorbance was detected with a spectrophotometer.

[3] = Solubilization of taxol in DMSO or Neowater with 17% EtOH (Example 15); type: physicochemical; settings: 0.5 mM; Neowater with 17% EtOH
Procedure: Solubilization: 0.5 mM Taxol solution was prepared (0.0017 gr in 4 ml) in either DMSO or Neowater™ with 17% EtOH. Absorbance was detected with a spectrophotometer.

[4] = cited from earlier work
[5] = Dissolving CD-Dau, Daunorubicine and t-boc (Example 9); type: physicochemical
Procedure: 5 different glass vials were prepared: • 1. 5 mg CD-Dau+1.2 ml Neowater™. • 2. 1.8 mg CD-Dau+600 μl acetone. • 3. 1.8 mg CD-Dau+150 μl acetone+450 μl Neowater™ (25% acetone). • 4. 1.8 mg CD-Dau+600 μl 10% *PEG (Polyethylene Glycol). • 5. 1.8 mg CD-Dau+600 μl acetone+600 μl Neowater™.
The samples were vortexed and spectrophotometer measurements were performed on vials #1, 4 and 5
The vials were left opened in order to evaporate the acetone (vials #2, 3, and 5).
2 mg Daunorubicine+1 ml Neowater™ was prepared in one vial and 2 mg of Daunorubicine+1 ml RO was prepared in a second vial.
1.14 ml of EtOH was added to one glass vial containing 18.5 mg of t-boc (an oily material). This was then divided into two vials and 1.74 ml Neowater™ or RO water was added to the vials such that the solution comprised 25% EtOH. Following spectrophotometer measurements, the solvent was evaporated from the solution and Neowater™ was added to both vials to a final volume of 2.31 ml in each vial. The solutions in the two vials were merged to one clean vial and packaged for shipment under vacuum conditions.

[6] = Solubilization of peptides in Neowater (Example 11); type: physicochemical; settings: at 0.5 mM
From the text: Spectrophotometric measurements were taken.

CC1=C(/C=C/C(C)=C/C=C/C(C)=C/CO)C(C)(C)CCC1 [Retinol]
retinol in the solutions following filtration ([1]; 0.25% retinol in Neowater, 1.5% EtOH, filtered (0.44 and 0.2 filter)): less than 0.03125%
retinol concentration in EtOH with similar absorbance pattern ([1]; nominal 0.25% retinol in Neowater): ~0.03125%
retinol concentration in EtOH with similar absorbance pattern ([1]; nominal 0.5% retinol in Neowater): ~0.125%

CC(=O)O[C@H]1C(=O)[C@@]2(C)[C@H]([C@H](OC(=O)c3ccccc3)[C@]3(O)C[C@H](OC(=O)[C@H](O)[C@@H](NC(=O)c4ccccc4)c4ccccc4)C(C)=C1C3(C)C)[C@]1(OC(C)=O)CO[C@@H]1C[C@@H]2O [Taxol, Paclitaxel]
cytotoxic effect (293T cells): comprised a cytotoxic effect
structural changes of the formulation on storage [2]: no structural changes
dissolving in DMSO and Neowater [3]: dissolved both in DMSO and Neowater™

Daidzein—daunomycin conjugate [CD-Dau]
solubility in water (known) [4]: known not to dissolve in water
dissolving, Vial #3 (25% acetone) ([5]; 1.8 mg + 150 μl acetone + 450 μl Neowater): didn't dissolve very well
dissolving, Vial #4 (10% PEG+Neowater) ([5]; 1.8 mg + 600 μl 10% PEG): dissolved better than the CD-Dau in vial #1
dissolving, Vial #2 (100% acetone) ([5]; 1.8 mg + 600 μl acetone): suspended inside the acetone
dissolving, Vial #5 (acetone exchanged for Neowater) ([5]; 1.8 mg + 600 μl acetone + 600 μl Neowater, as the acetone evaporated): partially sediment to the bottom of the vial
dissolving, Vial #1 (100% Neowater) ([5]; 5 mg + 1.2 ml Neowater): sedimented after a few hours

PFPSYKLRPG-NH2
dissolving in Neowater [6]: dissolved

COc1cccc2c1C(=O)c1c(O)c3c(c(O)c1C2=O)C[C@@](O)(C(C)=O)C[C@@H]3O[C@H]1C[C@H](N)[C@H](O)[C@H](C)O1 [Daunorubicine, Cerubidine hydrochloride]
solubility in water (known) [4]: known not to dissolve in water
dissolving in Neowater and RO ([5]; 2 mg in 1 ml): dissolves without difficulty
